Test results taken from patent US11964970B1, “7-(4-((5-(3-bromobenzylideneamino)-2-thioxo-1,3,4-thiadiazol-3(2H)-yl)methyl)piperazin-1-yl)-1-cyclopropyl-6-fluoro-4-oxo-1,4-dihydroquinoline-3-carboxylic acid as an anti-inflammatory and anticancer compound” (KING FAISAL UNIVERSITY, priority 2023, dated 2024).

Legend:
[1] = test system: human prostate cancer cells (PC3); experiment: Assessment of cytotoxicity by SRB assay, PC3; assay type: cell-based; conditions: androgen-independent metastatic human prostate cancer cells (PC3), 72 h, 0.01 μM to 100 μM
Protocol: (§1) The human prostate cancer cells (PC3) and human osteosarcoma cells (MG-63) were obtained from Nawah Scientific Inc. (Mokatam, Cairo, Egypt) and cultured in DMEM (Dulbecco's modified eagle's medium), Gibco, USA, supplemented with fetal bovine serum (FBS) at a concentration of 10% and 100 U/mL of penicillin and streptomycin (PS). The Cells were incubated at 37° C. in a humidified environment that contained 5% CO2.
(§2) Cells were seeded in 96-well plates as aliquots of 100 μL cell suspension and incubated in a complete media for 24 h. afterward, cells were treated with N′-(1-naphthoyloxy)-2-(benzo[d]thiazol-2-yl)acetimidamide at diverse concentrations ranging from 0.01 μM to 100 μM for 72 h. Then, cells were fixed at 4° C. for one hour with 150 μL of 10% trichloroacetic acid (TCA). After washing the cells five times with distilled water, 70 μL of sulforhodamine (SRB) solution (0.4% w/v) was added and incubated for 10 min at room temperature in a dark place. […] Then, 150 μL of Tris pH 10.5 (10 mM) was added, and the absorbance was measured at 540 nm using a BMG LABTECH®-FLUOstar Omega microplate reader (Ortenberg, Germany). Half maximal inhibitory concentrations (IC50) values were calculated for each experiment using GraphPad Prism 6 software. […]
(§3) The inhibition was calculated using the following equation: Inhibition %=100−Average Viability

Bovine Serum Albumin = Bovine Serum Albumin (Bos taurus, UniProt P02769); experiment: Bovine Serum Albumin Assay (BSA), inhibition of protein denaturation; assay type: biochemical; conditions: BSA 0.4% w/v, pH 6.4, 72° C. for 10 minutes, 20-100 μg/mL, turbidity at 660 nm
Protocol: In vitro-inflammatory activities of the tested samples were determined using a modified method of the BSA assay reported by Williams et al. BSA solution (0.4%, w/v) was prepared in Tris Buffered Saline. The pH was adjusted to 6.4 with glacial acetic acid. Different dilutions of 20, 40, 60, 80, and 100 μg/mL of the stock solutions were added to test tubes containing 1 mL of 0.4%, w/v BSA buffer solution. Both negative (solvent) and positive (aspirin) controls were assayed in a similar manner. The solutions were then heated in a water bath at 72° C. for 10 minutes and cooled for 20 minutes under laboratory conditions. The turbidity of the solutions (level of protein precipitation) was measured at 660 nm in Spectrophotometer (V-770 UV-Visible/NIR Spectrophotometer).
The percentage inhibition of precipitation (protein denaturation) was determined relative to the negative control using the following equation:
[formula] % Anti-Denaturation Activity=% Inhibition of Protein Denaturation=% Anti-inflammatory Activity

[2] = test system: human osteosarcoma cells (MG-63); experiment: Assessment of cytotoxicity by SRB assay, MG-63; assay type: cell-based; conditions: osteosarcoma (MG-63) cells, 72 h, 0.01 μM to 100 μM
Protocol: as §1, §2, §3

Bovine Serum Albumin, sequence (P02769 25-607): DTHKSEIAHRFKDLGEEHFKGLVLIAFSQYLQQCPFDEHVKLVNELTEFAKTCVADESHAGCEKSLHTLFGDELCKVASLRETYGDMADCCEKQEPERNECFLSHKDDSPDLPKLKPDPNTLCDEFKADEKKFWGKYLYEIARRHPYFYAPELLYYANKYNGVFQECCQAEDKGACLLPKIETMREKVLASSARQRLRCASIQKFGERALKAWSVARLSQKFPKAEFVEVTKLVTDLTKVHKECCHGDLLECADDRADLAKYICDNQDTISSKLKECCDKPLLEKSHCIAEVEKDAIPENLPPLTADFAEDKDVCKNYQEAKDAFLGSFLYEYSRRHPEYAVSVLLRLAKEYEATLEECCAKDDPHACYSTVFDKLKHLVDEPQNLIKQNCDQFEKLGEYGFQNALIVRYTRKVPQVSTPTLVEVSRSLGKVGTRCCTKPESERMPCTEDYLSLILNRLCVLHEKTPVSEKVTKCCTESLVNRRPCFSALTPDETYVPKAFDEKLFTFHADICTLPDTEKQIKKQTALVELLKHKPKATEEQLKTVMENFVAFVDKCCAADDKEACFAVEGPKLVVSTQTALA

O=C(O)c1cn(C2CC2)c2cc(N3CCN(Cn4nc(/N=C/c5cccc(Br)c5)sc4=S)CC3)c(F)cc2c1=O [7-(4-((5-(3-bromobenzylideneamino)-2-thioxo-1,3,4-thiadiazol-3(2H)-yl)methyl)piperazin-1-yl)-1-cyclopropyl-6-fluoro-4-oxo-1,4-dihydroquinoline-3-carboxylic acid]
antiproliferative activity against PC3 cells [1]: excellent antiproliferative activities | in vitro anti-inflammatory activity (inhibition of protein denaturation) (Bovine Serum Albumin): considerable anti-inflammatory effect | antiproliferative activity against MG-63 cells [2]: excellent antiproliferative activities | melting point: 251 to 253 °C
